According to patent US7638036B2, “Redox potential mediated carbon nanotubes biosensing in homogeneous format” (E. I. du Pont de Nemours and Company, priority 2004, dated 2009):
Structures can show the parent of a compound that is named as a salt. Where two headings read alike, the source gives them in different places.

Experiments:
[1] = system: Trametes versicolor laccase; experiment: Laccase inhibitor evaluation: rate of ABTS^−2 oxidation at varied inhibitor and substrate concentrations (1/V versus [I] plots); assay type: biochemical
Description: High potential quinones/quinols were screened to identify those with characteristics that would be suitable for use as an inhibitor of laccase, to be used in an activity switch.
Compounds were evaluated by varying the concentrations of inhibitor and substrate (ABTS^−2) and measuring under each condition the rate of ABTS^−2 oxidation. […] Tetrachloro-o-quinol and tetrafluoro-o-quinol, shown in Diagram I, had Kds, of 7-9 μM and 2.5 μM, respectively, as determined from the data in FIG. 12.
After the addition of sodium cyanoborohydride (6 mg, 100 nmol), the reaction mixture was stirred for an additional 2 hours, washed with water (2×0.5 mL) and dried on a rotavap.

[2] = system: laccase Type I copper center; experiment: Laccase 600 nm absorbance peak on inhibitor binding; parameters: species or system Trametes versicolor; conditions: charge-transfer band of Type I copper center
Source text: This conclusion was strengthened by the observation that the binding of tetrachloro-o-quinol to laccase caused a decrease in the amplitude of the laccase 600 nm absorbance peak, dominated by a charge-transfer band involving the Type I copper center and its cysteinyl ligand.

[3] = system: Trametes versicolor laccase; experiment: Laccase assay: ABTS^−2 oxidation followed by absorbance change at 436 nm, with and without NaF; assay type: biochemical; conditions: 1 mM NaF; 5 mM ABTS^−2 in 50 mM Glycine pH 3.0
[4] = inhibitor of laccase, substrate ABTS^−2, read-out: Kd (dissociation constant of the inhibitor, −Ki at intersection point)

Compound	Kd [1, 4] [µM]	activity as laccase inhibitor ([1]; substrate ABTS^−2)	also measured
Oc1c(O)c(F)c(F)c(F)c1F [tetrafluoro-o-quinol]	2.5	–	–
Oc1c(Cl)c(Cl)c(O)c(Cl)c1Cl [tetrachloro-p-quinol, reference compound]	–	inactive as an inhibitor	–
Oc1c(O)c(Cl)c(Cl)c(Cl)c1Cl [Tetrachloro-o-quinol]	7 to 9	effective inhibitor	amplitude of the laccase 600 nm absorbance peak on binding [2]: decrease
CCn1c(=NN=c2sc3cc(S(=O)(=O)O)ccc3n2CC)sc2cc(S(=O)(=O)O)ccc21 [ABTS^−2, 2,2′-azino-bis(3-ethylbenz-thiazoline-6-sulfonate) diammonium salt, reference compound]	–	–	Kd ([1]; substrate binding to laccase, read-out: dissociation constant, Kd of the laccase substrate): 120 to 240 µM
[F-].[Na+] [NaF]	–	–	inhibition of laccase activity [3]: 95%
